Experimental data as given in PubChem BioAssay (NCI).
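Values below derive from 48-hour exposures of cells grown in 96-well plates, with endpoints linearly interpolated between the two concentrations bracketing the appropriate inhibition level. TGI denotes the concentration required for complete inhibition of growth.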

Key:
Assay in all cases: NCI tumour cell line growth inhibition, 48 h
MALME-3M melanoma = test system: MALME-3M melanoma
CCRF-CEM leukemia = test system: CCRF-CEM leukemia
UACC-62 melanoma = test system: UACC-62 melanoma
SW-620 colon = test system: SW-620 colon
M19-MEL melanoma = test system: M19-MEL melanoma
NCI-H460 lung = test system: NCI-H460 lung
EKVX NSCLC = test system: EKVX NSCLC
OVCAR-5 ovarian = test system: OVCAR-5 ovarian
RPMI-8226 leukemia = test system: RPMI-8226 leukemia
HCT-116 colon = test system: HCT-116 colon
OVCAR-4 ovarian = test system: OVCAR-4 ovarian
IGROV1 ovarian = test system: IGROV1 ovarian
SF-268 CNS = test system: SF-268 CNS
CAKI-1 renal = test system: CAKI-1 renal
HT29 colon = test system: HT29 colon
SF-295 CNS = test system: SF-295 CNS
ACHN renal = test system: ACHN renal
HOP-92 NSCLC = test system: HOP-92 NSCLC
OVCAR-3 ovarian = test system: OVCAR-3 ovarian
SNB-75 CNS = test system: SNB-75 CNS
KM12 colon = test system: KM12 colon
HCC-2998 colon = test system: HCC-2998 colon
RXF 393 renal = test system: RXF 393 renal
DLD-1 colon = test system: DLD-1 colon
NCI-H522 lung = test system: NCI-H522 lung
SK-OV-3 ovarian = test system: SK-OV-3 ovarian
MOLT-4 leukemia = test system: MOLT-4 leukemia
TK-10 renal = test system: TK-10 renal
SF-539 CNS = test system: SF-539 CNS
KM20L2 colon = test system: KM20L2 colon
A549 NSCLC = test system: A549 NSCLC
SK-MEL-5 melanoma = test system: SK-MEL-5 melanoma
HCT-15 colon = test system: HCT-15 colon
LOX IMVI melanoma = test system: LOX IMVI melanoma
SK-MEL-28 melanoma = test system: SK-MEL-28 melanoma
HL-60(TB) leukemia = test system: HL-60(TB) leukemia
SK-MEL-2 melanoma = test system: SK-MEL-2 melanoma
K-562 leukemia = test system: K-562 leukemia
SN12C renal = test system: SN12C renal
HOP-18 NSCLC = test system: HOP-18 NSCLC
DMS 273 small cell lung = test system: DMS 273 small cell lung
UO-31 renal = test system: UO-31 renal
U251 CNS = test system: U251 CNS
COLO 205 colon = test system: COLO 205 colon
LXFL 529 NSCLC = test system: LXFL 529 NSCLC
M14 melanoma = test system: M14 melanoma
RXF-631 renal = test system: RXF-631 renal
DMS 114 small cell lung = test system: DMS 114 small cell lung
786-0 renal = test system: 786-0 renal
A498 renal = test system: A498 renal
SNB-19 CNS = test system: SNB-19 CNS
NCI-H226 lung = test system: NCI-H226 lung
UACC-257 melanoma = test system: UACC-257 melanoma

Cn1cccc1/C=C/c1cc(Br)c(/C=C/c2cccn2C)cc1Br
TGI (MALME-3M melanoma): 31.2 µM | TGI (CCRF-CEM leukemia): 62.2 µM | TGI (UACC-62 melanoma): 43.1 µM | TGI (SW-620 colon): 56.3 µM | TGI (M19-MEL melanoma): 53.7 µM | TGI (NCI-H460 lung): 45.9 µM | TGI (EKVX NSCLC): 37.2 µM | TGI (OVCAR-5 ovarian): > 100 µM | TGI (RPMI-8226 leukemia): 41.3 µM | TGI (HCT-116 colon): 43.4 µM | TGI (OVCAR-4 ovarian): 20.2 µM | TGI (IGROV1 ovarian): 53.2 µM | TGI (SF-268 CNS): 91.9 µM | TGI (CAKI-1 renal): 39.7 µM | TGI (HT29 colon): 41.5 µM | TGI (SF-295 CNS): 52.8 µM | TGI (ACHN renal): 26.1 µM | TGI (HOP-92 NSCLC): 39.5 µM | TGI (OVCAR-3 ovarian): 33.6 µM | TGI (SNB-75 CNS): 16.5 µM | TGI (KM12 colon): 21.7 µM | TGI (HCC-2998 colon): 16.6 µM | TGI (RXF 393 renal): 25.1 µM | TGI (DLD-1 colon): 4.97 µM | TGI (NCI-H522 lung): 28.3 µM | TGI (SK-OV-3 ovarian): 30.3 µM | TGI (MOLT-4 leukemia): 43.2 µM | TGI (TK-10 renal): 45.3 µM | TGI (SF-539 CNS): 31.5 µM | TGI (KM20L2 colon): 58.4 µM | TGI (A549 NSCLC): 39.1 µM | TGI (SK-MEL-5 melanoma): 32 µM | TGI (HCT-15 colon): 24.6 µM | TGI (LOX IMVI melanoma): 56.4 µM | TGI (SK-MEL-28 melanoma): 31.5 µM | TGI (HL-60(TB) leukemia): 32.4 µM | TGI (SK-MEL-2 melanoma): 37.2 µM | TGI (K-562 leukemia): 43.9 µM | TGI (SN12C renal): 72.4 µM | TGI (HOP-18 NSCLC): 28 µM | TGI (DMS 273 small cell lung): 38.3 µM | TGI (UO-31 renal): 48 µM | TGI (U251 CNS): 28.6 µM | TGI (COLO 205 colon): 55 µM | TGI (LXFL 529 NSCLC): 25 µM | TGI (M14 melanoma): 57.9 µM | TGI (RXF-631 renal): 49.4 µM | TGI (DMS 114 small cell lung): 35.2 µM | TGI (786-0 renal): 20.2 µM | TGI (A498 renal): 45.1 µM | TGI (SNB-19 CNS): 92.8 µM | TGI (NCI-H226 lung): 39.5 µM | TGI (UACC-257 melanoma): > 100 µM
